# Laboratory results from ChEMBL document CHEMBL4382265, “(Pyrrolo-pyridin-5-yl)benzamides: BBB permeable monoamine oxidase B inhibitors with neuroprotective effect on cortical neurons” (Eur J Med Chem, 2019).
# The source made the active and inactive calls. No cut-off for these calls is given here.
# Columns and labels:
# [1] = buffer, pH 7.4, 1.5 h, 500 µM
# [2] = species: Homo sapiens; experiment: Selectivity index, ratio of IC50 for human recombinant MAO-A expressed in baculovirus infected BTI-TN-5B1-4 insect cells to IC50 for human recombinant MAO-B expressed in baculovirus infected BTI-TN-5B1-4 insect cells
# [3] = target: T1, Amine oxidase [flavin-containing] A (Homo sapiens, UniProt P21397); experiment: biochemical
# T1 sequence (P21397 whole entry): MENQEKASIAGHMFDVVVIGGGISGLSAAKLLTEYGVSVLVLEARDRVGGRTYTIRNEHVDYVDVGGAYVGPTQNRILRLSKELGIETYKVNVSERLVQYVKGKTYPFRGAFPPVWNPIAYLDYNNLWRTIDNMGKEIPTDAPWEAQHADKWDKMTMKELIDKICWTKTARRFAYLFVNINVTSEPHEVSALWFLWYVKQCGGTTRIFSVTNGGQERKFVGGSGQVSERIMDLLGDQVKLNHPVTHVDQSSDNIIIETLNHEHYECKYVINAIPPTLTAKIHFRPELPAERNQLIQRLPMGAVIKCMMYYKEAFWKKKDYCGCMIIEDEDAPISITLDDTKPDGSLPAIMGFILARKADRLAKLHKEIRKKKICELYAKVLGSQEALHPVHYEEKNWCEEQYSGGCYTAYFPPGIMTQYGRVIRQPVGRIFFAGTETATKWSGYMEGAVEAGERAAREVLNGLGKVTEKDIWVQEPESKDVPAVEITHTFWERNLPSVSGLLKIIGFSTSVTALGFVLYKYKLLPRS
# Description: Inhibition of human recombinant MAO-A expressed in baculovirus infected BTI-TN-5B1-4 insect cells using p-tyramine as substrate preincubated for 15 mins and measured after 45 mins by resorufin-based fluorescence assay
# [4] = in vitro; set-up: dose or concentration left out as unconfirmed; conditions: PAMPA, pH 7.4
# Description: (§1) Effective permeability of the compound in prisma HT buffer at 10 mM at pH 7.4 after 4 hrs by PAMPA
# [5] = physchem; conditions: buffer, pH 7.4
# [6] = Selectivity ratio of IC50 for Sprague-Dawley rat liver MAO-B to human recombinant MAO-B expressed in baculovirus infected BTI-TN-5B1-4 insect cells
# [7] = pampa, pH 7.4, 4 h, 10000 µM
# Description: as §1
# [8] = physchem; conditions: n-octanol/water, pH 7.4
# [9] = Kinetic aqueous solubility of compound at 500 uM at pH 5.5 after 90 mins by UV-vis spectrophotometric analysis; assay type: physicochemical; conditions: buffer; for log(Kinetic_solubility): pH 5.5, 1.5 h, 500 µM; for solubility kinetic at 1.5 h, 500 µM: pH 5.5, read-out: Kinetic_solubility
# [10] = Kinetic aqueous solubility of compound at 500 uM at pH 2 after 90 mins by UV-vis spectrophotometric analysis; assay type: physicochemical; conditions: buffer; for log(Kinetic_solubility): pH 2, 1.5 h, 500 µM; for solubility kinetic at 1.5 h, 500 µM: pH 2, read-out: Kinetic_solubility
# [11] = target: T2, Amine oxidase [flavin-containing] B (Homo sapiens, UniProt P27338); experiment: Inhibition of human recombinant MAO-B expressed in baculovirus infected BTI-TN-5B1-4 insect cells using p-tyramine as substrate preincubated for 15 mins and measured after 45 mins by Cheng-Prusoff equation analysis
# T2 sequence (P27338 whole entry): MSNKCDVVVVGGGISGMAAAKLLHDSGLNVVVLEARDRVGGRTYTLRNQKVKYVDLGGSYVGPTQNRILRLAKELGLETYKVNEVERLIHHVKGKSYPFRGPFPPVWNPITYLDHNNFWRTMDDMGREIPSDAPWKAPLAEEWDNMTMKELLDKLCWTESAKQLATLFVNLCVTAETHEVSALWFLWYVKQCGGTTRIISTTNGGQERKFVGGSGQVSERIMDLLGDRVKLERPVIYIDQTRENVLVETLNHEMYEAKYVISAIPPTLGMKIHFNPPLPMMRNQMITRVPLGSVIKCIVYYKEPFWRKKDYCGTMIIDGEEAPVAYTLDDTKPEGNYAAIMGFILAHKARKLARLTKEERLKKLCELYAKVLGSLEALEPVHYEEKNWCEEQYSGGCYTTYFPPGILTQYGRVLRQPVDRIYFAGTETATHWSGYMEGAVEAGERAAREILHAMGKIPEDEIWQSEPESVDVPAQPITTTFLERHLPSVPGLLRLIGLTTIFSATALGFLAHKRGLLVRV
# [12] = target: T2, Amine oxidase [flavin-containing] B; experiment: biochemical; assay type: cell-based, BTI-TN-5B1-4
# Description: Inhibition of human recombinant MAO-B expressed in baculovirus infected BTI-TN-5B1-4 insect cells using p-tyramine as substrate preincubated for 15 mins and measured after 45 mins by resorufin-based fluorescence assay
# [13] = target: T2, Amine oxidase [flavin-containing] B; experiment: Reversible inhibition of human recombinant MAO-B expressed in baculovirus infected BTI-TN-5B1-4 insect cells at IC80 using p-tyramine as substrate incubated for 20 mins followed by increase in substrate concentration up to 1 mM and measured after 300 mins by fluorescence assay
# [14] = target: T3, Amine oxidase [flavin-containing] A (Rattus norvegicus, UniProt P21396)
# T3 sequence (P21396 whole entry): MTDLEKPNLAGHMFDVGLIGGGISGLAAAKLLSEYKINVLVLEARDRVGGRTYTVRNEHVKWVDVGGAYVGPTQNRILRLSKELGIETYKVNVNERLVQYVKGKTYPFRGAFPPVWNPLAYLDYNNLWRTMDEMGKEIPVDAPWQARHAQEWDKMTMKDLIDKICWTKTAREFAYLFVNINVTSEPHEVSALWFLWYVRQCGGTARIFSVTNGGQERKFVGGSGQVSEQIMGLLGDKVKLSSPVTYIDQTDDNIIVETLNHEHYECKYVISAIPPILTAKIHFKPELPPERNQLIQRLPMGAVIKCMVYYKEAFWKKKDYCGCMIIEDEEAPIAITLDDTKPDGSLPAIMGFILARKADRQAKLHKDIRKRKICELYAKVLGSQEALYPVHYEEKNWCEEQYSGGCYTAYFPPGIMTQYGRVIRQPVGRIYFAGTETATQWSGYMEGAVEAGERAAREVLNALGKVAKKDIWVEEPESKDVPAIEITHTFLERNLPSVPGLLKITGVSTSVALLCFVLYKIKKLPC
# Description: Inhibition of Sprague-Dawley rat liver MAO-A using p-tyramine as substrate preincubated for 15 mins and measured after 45 mins by resorufin-based fluorescence assay
# [15] = target: T4, Amine oxidase [flavin-containing] B (Rattus norvegicus, UniProt P19643)
# T4 sequence (P19643 whole entry): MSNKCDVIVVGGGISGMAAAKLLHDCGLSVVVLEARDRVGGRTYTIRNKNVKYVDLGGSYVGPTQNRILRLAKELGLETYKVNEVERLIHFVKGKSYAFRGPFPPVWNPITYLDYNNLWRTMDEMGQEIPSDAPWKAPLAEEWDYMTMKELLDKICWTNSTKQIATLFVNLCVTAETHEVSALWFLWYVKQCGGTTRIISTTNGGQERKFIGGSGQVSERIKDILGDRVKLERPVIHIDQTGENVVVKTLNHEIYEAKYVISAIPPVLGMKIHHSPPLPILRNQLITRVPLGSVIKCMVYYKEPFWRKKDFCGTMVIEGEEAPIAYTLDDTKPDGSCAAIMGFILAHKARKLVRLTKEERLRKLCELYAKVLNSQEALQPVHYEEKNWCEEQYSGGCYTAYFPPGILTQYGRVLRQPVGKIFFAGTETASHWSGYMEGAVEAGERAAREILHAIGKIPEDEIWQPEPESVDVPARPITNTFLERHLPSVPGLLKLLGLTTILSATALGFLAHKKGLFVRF
# Description: Inhibition of Sprague-Dawley rat liver MAO-B using p-tyramine as substrate preincubated for 15 mins and measured after 45 mins by resorufin-based fluorescence assay
# [16] = test system: Cortical neurone; experiment: Neuroprotective activity in rat primary cortical neurons neurovascular unit model assessed as induction of neurite network outgrowth at 150 to 300 nM after 120 hrs in presence of HBMEC relative to untreated control; assay type: functional, cell-based
# [17] = test system: Cortical neurone; experiment: Neuroprotective activity in rat primary cortical neurons neurovascular unit model assessed as increase in survival at 150 to 300 nM after 120 hrs in presence of HBMEC relative to untreated control; assay type: functional, cell-based
# [18] = test system: Cortical neurone; experiment: Neuroprotective activity in rat primary cortical neurons neurovascular unit model assessed as induction of neurite network outgrowth at 1 pM to 10 nM after 120 hrs in presence of HBMEC relative to untreated control; assay type: functional, cell-based
# [19] = test system: Cortical neurone; experiment: Neuroprotective activity in rat primary cortical neurons assessed as induction of neurite network outgrowth at 10 to 100 nM after 120 hrs; assay type: functional, cell-based
# [20] = test system: Cortical neurone; experiment: Neuroprotective activity in rat primary cortical neurons assessed as increase in survival at 100 nM after 120 hrs relative to untreated control; assay type: functional
# [21] = test system: Cortical neurone; experiment: Neuroprotective activity in rat primary cortical neurons assessed as induction of neurite network outgrowth at 1 to 10 pM after 120 hrs; assay type: functional, cell-based
# [22] = test system: Cortical neurone; experiment: Neuroprotective activity in rat primary cortical neurons neurovascular unit model assessed as increase in survival at 1 pM to 10 nM after 120 hrs in presence of HBMEC relative to untreated control; assay type: functional, cell-based
# [23] = test system: Cortical neurone; experiment: Neuroprotective activity in rat primary cortical neurons at 0.1 to 1 nM after 120 hrs; assay type: functional, cell-based
# [24] = test system: Cortical neurone; experiment: Neuroprotective activity in rat primary cortical neurons assessed as increase in survival at 1 nM after 120 hrs relative to untreated control; assay type: functional
smiles,measurement,setting,value
O=C(Nc1cc2cc[nH]c2cn1)c1ccc(Cl)c(Cl)c1,log(Kinetic_solubility),[1],-4.19
same,Ratio IC50,[2],> 346
same,IC50,[3],> 10000 nM
same,Papp at 4 h,[4],111 ×10⁻⁶ cm/s
same,"solubility kinetic at 1.5 h, 500 µM",[5],65.1 µM
same,Ratio IC50,[6],1.1
same,log(permeability),[7],-3.96
same,logD at 1.5 h,[8],3.04
same,log(Kinetic_solubility),[9],-4.16
same,"solubility kinetic at 1.5 h, 500 µM",[9],68.8 µM
same,log(Kinetic_solubility),[10],-3.37
same,"solubility kinetic at 1.5 h, 500 µM",[10],426 µM
same,Ki,[11],12.8 nM
same,IC50,[12],28.9 nM
O=C(Nc1ccc2[nH]ccc2n1)c1ccc(F)c(Cl)c1,log(Kinetic_solubility),[1],-3.92
same,Ratio IC50,[2],> 3060
same,IC50,[3],> 10000 nM
same,Papp at 4 h,[4],110 ×10⁻⁶ cm/s
same,"solubility kinetic at 1.5 h, 500 µM",[5],119 µM
same,Ratio IC50,[6],1.1
same,log(permeability),[7],-3.96
same,logD at 1.5 h,[8],2.32
same,inhibition (INH),[13],Active
same,log(Kinetic_solubility),[9],-3.96
same,"solubility kinetic at 1.5 h, 500 µM",[9],111 µM
same,log(Kinetic_solubility),[10],-3.33
same,"solubility kinetic at 1.5 h, 500 µM",[10],501 µM
same,Ki,[11],1.45 nM
O=C(Nc1cc2cc[nH]c2cn1)c1ccc(F)c(Cl)c1,Ratio IC50,[2],> 138
same,IC50,[3],> 10000 nM
same,IC50,[14],> 10000 nM
same,Ratio IC50,[6],1.1
same,Ki,[11],31.8 nM
O=C(Nc1ccc2[nH]ccc2n1)c1ccc(Cl)c(F)c1,log(Kinetic_solubility),[1],-4.03
same,Ratio IC50,[2],> 917
same,IC50,[3],> 10000 nM
same,Papp at 4 h,[4],127 ×10⁻⁶ cm/s
same,"solubility kinetic at 1.5 h, 500 µM",[5],93.8 µM
same,Ratio IC50,[6],1.1
same,log(permeability),[7],-3.9
same,logD at 1.5 h,[8],2.69
same,log(Kinetic_solubility),[9],-4.09
same,"solubility kinetic at 1.5 h, 500 µM",[9],82.1 µM
same,log(Kinetic_solubility),[10],-3.41
same,"solubility kinetic at 1.5 h, 500 µM",[10],391 µM
same,Ki,[11],4.82 nM
O=C(Cc1ccc(Cl)c(Cl)c1)Nc1ccc2[nH]ccc2c1,Ki,[11],390 nM
O=C(Nc1cc2cc[nH]c2cn1)c1ccc(Cl)c(F)c1,Ratio IC50,[2],> 82
same,IC50,[3],> 10000 nM
same,IC50,[15],574 nM
same,IC50,[14],> 10000 nM
same,Ratio IC50,[6],1.1
same,Ki,[11],53.5 nM
same,IC50,[12],121 nM
O=C(Nc1ccc2[nH]ccc2n1)c1ccc(F)c(F)c1,Ratio IC50,[2],> 217
same,IC50,[3],> 10000 nM
same,Ratio IC50,[6],1.1
same,Ki,[11],20.4 nM
O=C(Nc1ccc2[nH]ncc2c1)c1c(F)cccc1Cl,Ki,[11],1460 nM
CC(=O)N[C@H]1CC(=O)N(c2ccc(OCc3cccc(F)c3)cc2)C1 [SEMBRAGILINE],Ratio IC50,[2],653
same,IC50,[15],14.7 nM
same,IC50,[14],7700 nM
same,IC50,[12],5.9 nM
O=C(Nc1ccc2[nH]ncc2c1)c1cccc(Cl)c1Cl,Ki,[11],1140 nM
C[C@]12CC[C@@H]3c4ccc(O)cc4CC[C@H]3[C@@H]1CC[C@@H]2O,Activity,[16],Active
same,Activity,[17],Active
O=C(Nc1cc2cc[nH]c2cn1)c1ccc(F)c(F)c1,Ratio IC50,[2],> 36
same,IC50,[15],1300 nM
same,Ratio IC50,[6],1.1
same,Ki,[11],122 nM
O=C(Nc1ccc2[nH]ccc2n1)c1ccc(Cl)c(Cl)c1,Activity,[18],Active
same,Activity,[19],inactive
same,log(Kinetic_solubility),[1],-4.4
same,Efficacy,[20],11%
same,IC50,[3],> 10000 nM
same,Papp at 4 h,[4],107 ×10⁻⁶ cm/s
same,Activity,[21],Active
same,"solubility kinetic at 1.5 h, 500 µM",[5],39.8 µM
same,Activity,[22],Active
same,Activity,[23],Active
same,log(permeability),[7],-3.97
same,Efficacy,[24],31%
same,logD at 1.5 h,[8],3.19
same,log(Kinetic_solubility),[9],-4.37
same,"solubility kinetic at 1.5 h, 500 µM",[9],42.9 µM
same,log(Kinetic_solubility),[10],-3.33
same,"solubility kinetic at 1.5 h, 500 µM",[10],471 µM
O=C(Nc1ccc2[nH]ncc2c1)c1ccc(Cl)c(Cl)c1,Ki,[11],5.48 nM
